# In the supplement of paper PMC6470124:
# Experiments:
# [1] = absolute recovery over vacuum-assisted evaporative concentration; higher = better recovery; settings: enrichment method: VEC
# In short: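 Samples of influent (6 mL), effluent (15 mL) and surface or nanopure water (60 mL) were spiked with standards before or after concentration, or left unspiked, at 200 ng/L (nanopure/surface) or 1000 ng/L (wastewater), adjusted by class and compound. Concentration was by evaporation at 55 °C and 20 mbar to about 0.3 mL, followed by adjustment to 0.4 mL and centrifugation. Internal standards were then added for LC-HRMS/MS analysis. Absolute recovery was (response ratio pre − unspiked)/(post − unspiked) × 100, using averages of ≥ 2 replicates.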
# [2] = absolute recovery over mixed-bed multilayer solid-phase extraction; higher = better recovery; settings: enrichment method: SPE
# In short: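 Elution from a three-layer mixed-bed cartridge used basic followed by acidic ethyl acetate/methanol, after loading either 1000 mL of unfiltered nanopure water or 100–250 mL of wastewater that had been set to pH 6.5 and glass-fibre filtered. Standards went in before or after extraction, or were left out, at 200 ng/L (water) or 1000 ng/L (wastewater), with class exceptions. Internal standards were added afterwards, and measurement was by liquid chromatography with high-resolution tandem mass spectrometry in both ionisation modes. For absolute recovery, background-corrected response ratios of pre-spiked samples were compared with those of post-spiked samples and averaged over at least two replicates.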
# [3] = LC retention time (Atlantis T3, 5-95% MeOH gradient, 0.1% formic acid); higher = more retained / less polar
# In short: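 Retention times refer to reference standards measured by liquid chromatography with high-resolution tandem mass spectrometry. Separation was on an Atlantis T3 C18 column (3 × 150 mm, 3 μm) at 0.3 mL/min with a 5 to 95% methanol gradient over 17.5 min, both solvents carrying 0.1% formic acid. Positive and negative electrospray were run separately on a QExactive Plus, and TraceFinder peak integration (5 ppm tolerance, at least three points per peak) was reviewed by hand.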
Structure (SMILES),absolute recovery ([1]; wastewater effluent) [%],absolute recovery ([1]; wastewater influent) [%],absolute recovery ([2]; nanopure water) [%],absolute recovery ([2]; surface water) [%],absolute recovery ([2]; wastewater effluent) [%],absolute recovery ([2]; wastewater influent) [%],LC retention time [3] [min]
COc1nc(NC(C)C)nc(NC(C)C)n1 [Prometon F],104,106,88.1,95.5,91.6,92.7,15.8
CSc1nc(NC(C)C)nc(NC(C)C)n1 [Prometryn G],94.8,94.8,97.7,92.8,92.4,94.1,18.2
CC(C)N(C(=O)CCl)c1ccccc1 [Propachlor],83.8,76.9,84.3,87,81.1,93.3,18.4
CC(C)=NOCCOC(=O)C(C)Oc1ccc(Oc2cnc3cc(Cl)ccc3n2)cc1 (stereo not drawn) [Propaquizafop],68.4,13.2,79.1,91.4,93.7,80.9,22.4
CCCC1COC(Cn2cncn2)(c2ccc(Cl)cc2Cl)O1 (stereo not drawn) [Propiconazol],104,101,97.2,94.8,91.8,,21.1
CCC(=O)OC(Cc1ccccc1)(c1ccccc1)C(C)C[NH+](C)C (stereo not drawn) [Propoxyphene],108,110,85.3,94.6,91.5,72.4,15.6
C#CC(C)(C)NC(=O)c1cc(Cl)cc(Cl)c1 [Propyzamide],82,88.4,97.1,88.9,87.8,101,20
COc1nc(C)nc(NC(=O)[N-]S(=O)(=O)c2ccccc2CCC(F)(F)F)n1 [Prosulfuron],108,102,106,113,104,102,19.3
OC(Cc1ccccc1Cl)(Cn1cncn1)C1(Cl)CC1 (stereo not drawn) [Prothioconazole-desethio],141,128,109,86.3,104,104,20.6
OC(Cc1ccccc1Cl)(Cn1[nH]cnc1=S)C1(Cl)CC1 (stereo not drawn) [Prothioconazole],96.6,39.8,,94.5,41.8,14.7,21.2
CC1=NNC(=O)N(N=Cc2cccnc2)C1 [Pymetrozin],107,110,118,112,106,97,8.65
COC(=O)N(OC)c1ccccc1COc1ccn(-c2ccc(Cl)cc2)n1 [Pyraclostrobin],87.5,90.7,101,98,91.5,99.3,21.1
Cc1cc(C)nc(Nc2ccccc2)n1 [Pyrimethanil],88.8,86.4,89.2,91.1,91.4,90.3,18.3
COc1cc(OC)n2nc([N-]S(=O)(=O)c3c(C(F)(F)F)ccnc3OC)nc2n1 [Pyroxsulam],103,103,100,97.7,96.3,84.9,16.7
NC1=C(Cl)C(=O)c2ccccc2C1=O [Quinoclamine],97,106,93.9,96.8,92.6,88,16.8
Fc1ccc(Oc2ccnc3cc(Cl)cc(Cl)c23)cc1 [Quinoxyfen],69.8,,63.7,76.4,78.1,53.1,22.9
CC([NH3+])C12CC3CC(CC(C3)C1)C2 (stereo not drawn) [Rimantadin],105,112,71.9,76.1,72.9,71.4,14.6
CCS(=O)(=O)c1cccnc1S(=O)(=O)[N-]C(=O)Nc1nc(OC)cc(OC)n1 [Rimsulfuron],93.8,85,127,124,95,95.2,17.6
Cc1nc2n(c(=O)c1CC[NH+]1CCC(c3noc4cc(F)ccc34)CC1)CCCC2 [Risperidone],98.7,102,90.1,98.4,93.3,82,13.3
O=C([O-])C(c1ccccc1)C1CCCC[NH2+]1 (stereo not drawn) [Ritalinic-acid],110,104,104,77.4,88.9,79.8,12.3
CCN(C)C(=O)Oc1cccc(C(C)[NH+](C)C)c1 (stereo not drawn) [Rivastigmin],102,105,90.4,94.7,90.6,98.8,12.2
O=C1[N-]S(=O)(=O)c2ccccc21 [Saccharin],102,,101,105,95.6,,11.6
CCNc1nc(Cl)nc(NCC)n1 [Simazin],98.3,106,94.2,94.4,88.3,94.9,17.2
CCC(C)(C)C(=O)OC1=C(c2ccc(Cl)cc2Cl)C(=O)OC12CCCCC2 [Spirodiclofen],77.8,44.4,,12.2,18,,23.8
CCOC(=O)OC1=C(c2cc(C)ccc2C)C(=O)NC12CCC(OC)CC2 (stereo not drawn) [Spirotetramat],61.7,54.9,12,16.9,29.9,27,20
CCC[NH+](CC)CC1COC2(CCC(C(C)(C)C)CC2)O1 (stereo not drawn) [Spiroxamin],91.4,66.6,83,102,90.3,71.8,16.9
CS(=O)(=O)c1ccc(C(=O)[C-]2C(=O)CCCC2=O)c(Cl)c1 [Sulcotrion],103,101,97.7,93.4,94.8,93.9,16.7

# Continued, values first:
absolute recovery ([1]; wastewater effluent) [%],absolute recovery ([1]; wastewater influent) [%],absolute recovery ([2]; nanopure water) [%],absolute recovery ([2]; surface water) [%],absolute recovery ([2]; wastewater effluent) [%],absolute recovery ([2]; wastewater influent) [%],LC retention time [3] [min],Structure (SMILES)
93.9,6.6,92.4,97.3,94.7,95.7,21.4,CC(=O)C1CCC2C3CCC4=CC(=O)CCC4(C)C3CCC12C (stereo not drawn) [Progesteron]
108,96.6,93.1,94.4,91.1,96.4,19.4,CC(C)N(C(=O)CS(=O)(=O)[O-])c1ccccc1 [Propachlor-ESA]
105,100,96,73.3,93.5,102,17.8,CC(C)N(C(=O)C(=O)[O-])c1ccccc1 [Propachlor-OXA]
105,105,83,83.9,84.1,86.5,8.99,CCCOC(=O)NCCC[NH+](C)C [Propamocarb]
104,113,103,96.9,94.2,88,12.7,CC(C)Nc1nc(O)nc(NC(C)C)n1 [Propazine-2-hydroxy I]
105,100,100,96.8,93.7,86.3,14.4,CC(C)[NH2+]CC(O)COc1cccc2ccccc12 (stereo not drawn) [Propranolol]
84.4,62.4,76.1,73.6,78,65,24.6,CCCOc1nc2ccc(I)cc2c(=O)n1CCC [Proquinazid]
94,99.9,83.7,87,87.3,88.2,18.4,COc1ccc(CN(CC[NH+](C)C)c2ccccn2)cc1 [Pyrilamine]
108,108,76.8,81.4,85.3,96.4,11.8,Cc1cc(O)nc(C(C)C)n1 [Pyrimidinol]
103,92.2,50.9,69.4,63.7,73.7,8.99,CNC(=C[N+](=O)[O-])NCCSCc1ccc(C[N+](C)(C)[O-])o1 [Ranitidin-N-oxid]
83.5,142,72.3,74.2,67.2,81.4,6.08,CNC(=C[N+](=O)[O-])NCCS(=O)Cc1ccc(C[NH+](C)C)o1 (stereo not drawn) [Ranitidin-S-oxid]
120,95.3,95.4,98.7,102,94.8,19.3,CCOc1cc(CC(=O)NC(CC(C)C)c2ccccc2N2CCCCC2)ccc1C(=O)[O-] (stereo not drawn) [Repaglinide]
21.6,64.3,64.2,81.9,80.1,64.2,15.9,COC(=O)C1C2CC3c4[nH]c5cc(OC)ccc5c4CC[NH+]3CC2CC(OC(=O)c2cc(OC)c(OC)c(OC)c2)C1OC (stereo not drawn) [Reserpin]
87,67.6,33.5,30.5,33.2,37,4.79,NC(=O)c1ncn(C2OC(CO)C(O)C2O)n1 (stereo not drawn) [Ribavirin]
106,99.5,85.2,92.4,86.9,87.6,21,CC(C)c1nc(CN(C)C(=O)NC(C(=O)NC(Cc2ccccc2)CC(O)C(Cc2ccccc2)NC(=O)OCc2cncs2)C(C)C)cs1 (stereo not drawn) [Ritonavir]
108,91.4,96.2,92.9,90,90.1,18.3,CC(C)c1nc(N(C)S(C)(=O)=O)nc(-c2ccc(F)cc2)c1C=CC(O)CC(O)CC(=O)[O-] (stereo not drawn) [Rosuvastatin]
90.2,90.4,80.1,95.7,87.5,98.8,17,CCC1OC(=O)C(C)C(OC2CC(C)(OC)C(O)C(C)O2)C(C)C(OC2OC(C)CC([NH+](C)C)C2O)C(C)(O)CC(C)C(=NOCOCCOC)C(C)C(O)C1(C)O (stereo not drawn) [Roxithromycin]
98.5,104,122,101,100,92.3,14,NC(=O)c1cn(Cc2c(F)cccc2F)nn1 [Rufinamid]
105,107,84.5,78.7,88.3,82.7,10.1,CCNc1nc(O)nc(NCC)n1 [Simazin-2-hydroxy]
101,102,77.1,86,85.7,88.7,13,CCNc1nc(NCC)nc(OC)n1 [Simeton]
104,103,96.1,93,92.5,92,8.25,CC(C)[NH2+]CC(O)c1ccc(NS(C)(=O)=O)cc1 (stereo not drawn) [Sotalol]
93.7,91.9,80.9,79.1,87.9,92,19.3,CC(=O)SC1CC2=CC(=O)CCC2(C)C2CCC3(C)C(CCC34CCC(=O)O4)C12 (stereo not drawn) [Spironolacton]
,108,95,,,,13.4,OCC1OC(OC2(CCl)OC(CCl)C(O)C2O)C(O)C(O)C1Cl (stereo not drawn) [Sucralose]
101,109,96.8,38,92.6,95.3,12.1,CS(=O)(=O)c1ccc(C(=O)[O-])c(Cl)c1 [Sulcotrion-CMBA]
104,98.4,95.1,92,90.3,90,14.9,COc1cc([N-]S(=O)(=O)c2ccc(N)cc2)nc(OC)n1 [Sulfadimethoxin]
